Source: paper PMC9387934, “Randomized single oral dose phase 1 study of safety, tolerability, and pharmacokinetics of Iminosugar UV-4 Hydrochloride (UV-4B) in healthy subjects” (PLoS Neglected Tropical Diseases, 2022)
Like-named read-outs stand apart in the source and are kept apart here.

Assay: Phase 1a single ascending dose study: UV-4 plasma concentrations and PK parameters (LC-MS/MS, noncompartmental)
Assay type: in vivo
Conditions: for Tmax / half-life / AUC(0-inf) / Cmax: both sexes, human, plasma; for AUC(0-inf): read-out: AUC(0-inf); for Cmax: read-out: Cmax
Protocol: UV-4 ((2R,3R,4R,5S)-2-(hydroxymethyl)-1-(9-methoxynonyl)piperidine-3,4,5-triol, also called N-(9’-methoxynonyl)-1-deoxynojirimycin, or MON-DNJ) hydrochloride was evaluated in a first-in-human, randomized, single-center, double-blind, placebo-controlled, parallel group, single ascending dose Phase 1a clinical trial in healthy subjects (Figs 1 and 2, ClinicalTrials.gov Identifier NCT02061358 https://clinicaltrials.gov/ct2/show/NCT02061358). The primary objective was to determine the safety and tolerability of a single-ascending oral dose of UV-4 hydrochloride (Fig 3). […] The secondary objective was to determine PK parameters describing absorption and elimination of UV-4 following a single oral dose of UV-4 hydrochloride. Eight cohorts of eight subjects each were enrolled and completed the study. In each cohort, six subjects received UV-4 as the hydrochloride; two received placebo. Subjects were screened against study eligibility criteria up to four weeks (Days -28 to -2) before admission to the clinic (Day -1). Dosing was performed on an inpatient basis. Subjects remained in clinic for 48 hours post-dosing for PK sample collection and safety assessments and were discharged from the clinic on Day 3. Subjects returned to the clinic on Day 4 for additional safety assessments, then again on Day 9 ± 1 for a final follow-up visit.
Eligible subjects were healthy males and females, age 18–45 years, with a body mass index between 18 and 30 kg/m^2 inclusive and a minimum body weight of 60 kg. Subjects were considered healthy based on medical history, physical exam, vital signs, 12-lead electrocardiogram (ECG), clinical laboratory tests (hematology, blood chemistry, urinalysis), viral serology, and drug and alcohol screening. Male and female subjects of childbearing potential were required to use adequate contraception over the course of the clinical trial. […] Only subjects who met all inclusion and none of the exclusion criteria prior to administration of the investigational product were enrolled into the study (no exemptions were granted). A total of 64 subjects were enrolled (eight cohorts of eight subjects each). In each of the eight cohorts, six subjects were randomized to receive a single dose of UV-4 (3 to 1000 mg, depending on cohort) as the hydrochloride salt, and two subjects to receive placebo. Cohort size of six active subjects was based on analysis that increasing cohort size above six in a first-in-human study gains little in the ability to observe a drug induced event, and results in observing more events that are not related to study drug. Two of the eight subjects in each cohort (sentinel subjects; one active and one placebo) received their doses at least 48 h before the remaining subjects in each cohort.
On each day of use, bulk drug substance (UV-4B for solubilization, SAI Life Sciences Ltd. Telangana, India) was removed from a single-use container, weighed at the study center, and solubilized in 20 mL sterile water for injection (SWFI) (Hospira Inc. Illinois, United States of America). Weight of solid drug substance was converted to dose of UV-4 by applying purity and salt correction factor per pharmacy manual when preparing the dosing solution. UV-4B solution was administered orally with 10 mL of taste-masking agent, OraSweet-SF (Paddock Laboratories LLC, Minneapolis, United States of America) in a total volume of 30 mL, to assist in maintaining study blinding. Placebo was SWFI (20 mL) plus OraSweet-SF (10 mL). Concentrations and doses were calculated and expressed as the active free base form, UV-4. This methodology is consistent with USP<1121>, which recommends that the strength of a drug product or preparation is expressed in terms of the active moiety. Following consumption of active or placebo solution, the dosing container was rinsed with 50 mL of tap water also consumed by subjects. […]

[1] = po, 3 mg, 3 mg single oral dose, Ar Mean

## COCCCCCCCCCN1C[C@H](O)[C@@H](O)[C@H](O)[C@H]1CO [UV-4, N-(9’-methoxynonyl)-1-deoxynojirimycin]
3 mg, 5 of 6 subjects
  Time over which UV-4 plasma concentrations were quantifiable: 24 h
3 mg, one subject
  Time over which UV-4 plasma concentrations were quantifiable: 36 h
oral, 3 to 1000 mg UV-4 dose range, read-out: Median time to reach maximum plasma concentration (tmax), range across dose groups
  Tmax: 0.5 to 1 h
oral, Phase 1a study, 3 to 1000 mg, read-out: Mean half-life, range across dose groups
  half-life: 8.14 to 12 h
[1]
  AUC(0-inf): 95.6 ng·h/mL
  Cmax: 22.4 ng/mL
po, 3 mg, 3 mg single oral dose, Ar Mean, read-out: t1/2 (converted)
  half-life: 10.7 h
po, 3 mg, 3 mg single oral dose, Arithmetic Mean
  AUC(0-inf): 95.6 ng·h/mL
po, 3 mg, 3 mg single oral dose, Geo Mean
  Cmax: 22.1 ng/mL
po, 3 mg, 3 mg single oral dose, Geo Mean, read-out: t1/2 (converted)
  half-life: 10.3 h
po, 3 mg, 3 mg single oral dose, Geometric Mean
  AUC(0-inf): 94.6 ng·h/mL
po, 3 mg, 3 mg single oral dose, median, read-out: tmax
  Tmax: 0.5 h
po, 10 mg, 10 mg single oral dose, Ar Mean
  Cmax: 84.6 ng/mL
po, 10 mg, 10 mg single oral dose, Ar Mean, read-out: t1/2 (converted)
  half-life: 12 h
po, 10 mg, 10 mg single oral dose, Arithmetic Mean
  AUC(0-inf): 431 ng·h/mL
po, 10 mg, 10 mg single oral dose, Geo Mean
  Cmax: 82.6 ng/mL
po, 10 mg, 10 mg single oral dose, Geo Mean, read-out: t1/2 (converted)
  half-life: 11.9 h
po, 10 mg, 10 mg single oral dose, Geometric Mean
  AUC(0-inf): 420 ng·h/mL
po, 10 mg, 10 mg single oral dose, median, read-out: tmax
  Tmax: 1 h
po, 30 mg, 30 mg single oral dose, Ar Mean
  Cmax: 292 ng/mL
po, 30 mg, 30 mg single oral dose, Ar Mean, read-out: t1/2 (converted)
  half-life: 10 h
po, 30 mg, 30 mg single oral dose, Arithmetic Mean
  AUC(0-inf): 1260 ng·h/mL
po, 30 mg, 30 mg single oral dose, Geo Mean
  Cmax: 289 ng/mL
po, 30 mg, 30 mg single oral dose, Geo Mean, read-out: t1/2 (converted)
  half-life: 10 h
po, 30 mg, 30 mg single oral dose, Geometric Mean
  AUC(0-inf): 1260 ng·h/mL
po, 30 mg, 30 mg single oral dose, median, read-out: tmax
  Tmax: 0.5 h
po, 90 mg, 90 mg single oral dose, Ar Mean
  Cmax: 946 ng/mL
po, 90 mg, 90 mg single oral dose, Ar Mean, read-out: t1/2 (converted)
  half-life: 10.4 h
po, 90 mg, 90 mg single oral dose, Arithmetic Mean
  AUC(0-inf): 3730 ng·h/mL
po, 90 mg, 90 mg single oral dose, Geo Mean
  Cmax: 900 ng/mL
po, 90 mg, 90 mg single oral dose, Geo Mean, read-out: t1/2 (converted)
  half-life: 10.2 h
po, 90 mg, 90 mg single oral dose, Geometric Mean
  AUC(0-inf): 3700 ng·h/mL
po, 90 mg, 90 mg single oral dose, median, read-out: tmax
  Tmax: 0.5 h
po, 180 mg, 180 mg single oral dose, Ar Mean
  Cmax: 2150 ng/mL
po, 180 mg, 180 mg single oral dose, Ar Mean, read-out: t1/2 (converted)
  half-life: 8.7 h
po, 180 mg, 180 mg single oral dose, Arithmetic Mean
  AUC(0-inf): 7110 ng·h/mL
po, 180 mg, 180 mg single oral dose, Geo Mean
  Cmax: 2060 ng/mL
po, 180 mg, 180 mg single oral dose, Geo Mean, read-out: t1/2 (converted)
  half-life: 8.7 h
po, 180 mg, 180 mg single oral dose, Geometric Mean
  AUC(0-inf): 7090 ng·h/mL
po, 180 mg, 180 mg single oral dose, median, read-out: tmax
  Tmax: 0.8 h
po, 360 mg, 360 mg single oral dose, Ar Mean
  Cmax: 4570 ng/mL
po, 360 mg, 360 mg single oral dose, Ar Mean, read-out: t1/2 (converted)
  half-life: 8.1 h
po, 360 mg, 360 mg single oral dose, Arithmetic Mean
  AUC(0-inf): 13800 ng·h/mL
po, 360 mg, 360 mg single oral dose, Geo Mean
  Cmax: 4490 ng/mL
po, 360 mg, 360 mg single oral dose, Geo Mean, read-out: t1/2 (converted)
  half-life: 8.1 h
po, 360 mg, 360 mg single oral dose, Geometric Mean
  AUC(0-inf): 13700 ng·h/mL
po, 360 mg, 360 mg single oral dose, median, read-out: tmax
  Tmax: 0.5 h
po, 720 mg, 720 mg single oral dose, Ar Mean
  Cmax: 9920 ng/mL
po, 720 mg, 720 mg single oral dose, Ar Mean, read-out: t1/2 (converted)
  half-life: 8.2 h
po, 720 mg, 720 mg single oral dose, Arithmetic Mean
  AUC(0-inf): 32900 ng·h/mL
po, 720 mg, 720 mg single oral dose, Geo Mean
  Cmax: 9760 ng/mL
po, 720 mg, 720 mg single oral dose, Geo Mean, read-out: t1/2 (converted)
  half-life: 8.2 h
po, 720 mg, 720 mg single oral dose, Geometric Mean
  AUC(0-inf): 32800 ng·h/mL
po, 720 mg, 720 mg single oral dose, median, read-out: tmax
  Tmax: 0.8 h
po, 1000 mg, 1000 mg single oral dose, Ar Mean
  Cmax: 13100 ng/mL
po, 1000 mg, 1000 mg single oral dose, Ar Mean, read-out: t1/2 (converted)
  half-life: 8.8 h
po, 1000 mg, 1000 mg single oral dose, Arithmetic Mean
  AUC(0-inf): 43100 ng·h/mL
po, 1000 mg, 1000 mg single oral dose, Geo Mean
  Cmax: 13000 ng/mL
po, 1000 mg, 1000 mg single oral dose, Geo Mean, read-out: t1/2 (converted)
  half-life: 8.6 h
po, 1000 mg, 1000 mg single oral dose, Geometric Mean
  AUC(0-inf): 42800 ng·h/mL
po, 1000 mg, 1000 mg single oral dose, median, read-out: tmax
  Tmax: 1 h
Doses of 10 mg or higher, entire collection interval
  Time over which UV-4 plasma concentrations were quantifiable: 48 h
